These results are taken from US9254252B2, “Compounds” (DSM IP ASSETS B.V., priority 2011, dated 2016).

The data set in a line: Solubility of resveratrol in trilaureth-4 phosphate, judged by visual observation of transparency. Further details: key to Solubility: +: partially; from + = partially to +++ = fully soluble; +++: fully soluble. Format: physicochemical. The following applies: for Solubility: 40° C. As for the experimental part:
To evaluate solubility of resveratrol in trilaureth-4 phosphate, the following procedure was adopted: lab glass beakers of 250 ml capacity were filled with the phosphate ester surfactant in the range as indicated in Table 1. The final volume was 50 ml. Solubilization occurs almost instantaneously, however the beakers were vigorously shaken for about 1 minute at 6000 rpm. Level of solubility was judged by visual observation of transparency.

Molecules are shown by their SMILES.

As for `Oc1ccc(/C=C/c2cc(O)cc(O)c2)cc1` [Resveratrol, 5-[(1E)-2-(4-hydroxyphenyl)ethenyl]-1,3-Benzenediol], for the setting “in trilaureth-4 phosphate”, the “threshold level of solubility” value is recorded as “around 10%”. In addition, the “solubility in the emulsifier” value (in trilaureth-4 phosphate, room temperature) was “solubilizes well”. Moreover, the Solubility entry reads like this: (resveratrol 2 wt.-% in trilaureth-4 phosphate 98 wt.-%) “+++”; (resveratrol 4 wt.-% in trilaureth-4 phosphate 96 wt.-%) “+++”; (resveratrol 6 wt.-% in trilaureth-4 phosphate 94 wt.-%) “+++”; (resveratrol 8 wt.-% in trilaureth-4 phosphate 92 wt.-%) “+++”; (resveratrol 10 wt.-% in trilaureth-4 phosphate 90 wt.-%) “+++”; (resveratrol 12 wt.-% in trilaureth-4 phosphate 88 wt.-%) “++”.
